Measurements taken from article PMC5613016, “GRL-09510, a Unique P2-Crown-Tetrahydrofuranylurethane -Containing HIV-1 Protease Inhibitor, Maintains Its Favorable Antiviral Activity against Highly-Drug-Resistant HIV-1 Variants in vitro” (Scientific Reports, 2017).
Like-named read-outs stand apart in the source and are kept apart here.

Legend:
HIV-1NL4-3 [1] = details: MT-4 cells, p24 assay, previously reported; and 22; cited from earlier work
HIV-1MDR/G [2] = system: HIV-1MDR/G; set-up: method as in earlier work; details: and 22, cited from earlier work; for EC50: PHA-PBMs, p24 assay, previously reported; for fold change in EC50 HIV-1MDR/G: compared to HIV-1WT/ERS104pre, previously reported data
HIV-1APV ^R 5μM [3] = system: HIV-1APV ^R 5μM; set-up: method as in earlier work; details: and 22, cited from earlier work; for EC50: MT-4 cells, p24 assay, previously reported, read-out: EC50 HIV-1APVR5M; for fold change in EC50 HIV-1APVR5M: compared to HIV-1NL4-3, previously reported data
[4] = system: HIV-1ERS104pre (wild-type); details: PHA-PBMs, p24 assay, previously reported; and 22; read-out: EC50 HIV-1WT/ERS104pre; cited from earlier work
HIV-2ROD = test: microbe, parasite or virus in culture; format: cell-based; details: Human immunodeficiency virus 2, MT2, MT-2 cells, 100 TCID50, MTT assay; read-out: EC50 Against HIV-2ROD
Protocol: (§1) The susceptibility of HIV-1LAI or HIV-2ROD to various compounds was determined as previously described[20]–[22]. Briefly, MT-2 cells (10^4/ml) were exposed to 100 TCID50 of HIV-1LAI or HIV-2ROD in the presence or absence of various concentrations of compounds in 96-well plates and were incubated at 37 °C for 7 days. After incubation, 100 μl of the medium was removed from each well, 3-(4,5-dimetylthiazol-2-yl)-2,5-diphenyltetrazolium bromide (MTT) solution (10 μl, 7.5 mg/ml in PBS) was added to each well, followed by incubation at 37 °C for 2 h. […] To determine the sensitivity of clinically isolated HIV-1s to compounds, PHA-PBMC (10^6/ml) were exposed to 50 TCID50 of each HIV-1 and cultured in the presence or absence of various concentrations of compounds in 10-fold serial dilutions in 96-well plates. In determining the drug-susceptibility of certain laboratory HIV-1 strains, MT-4 cells were employed as target cells as previously described[23],[24]. MT-4 cells (10^5/ml) were exposed to 100 TCID50 of drug-resistant HIV-1s in the presence or absence of various concentrations of compounds and were incubated at 37 °C. On day 7, the supernatants were harvested and the amounts of p24 were determined by using a fully-automated chemiluminescent enzyme immunoassay system (Lumipulse f: Fujirebio, Tokyo)[35]–[37]. […] All assays were performed in duplicate, and EC50 shown in this report represent average values of two to four independent experiments. PHA-PBMCs were derived from a single donor in each independent experiment. The research protocols described in the present study were carried out in accordance with relevant guidelines and regulations, and were approved in Ethics Committee for Epidemiological and General Research at the Faculty of Life Sciences, Kumamoto University.

HIV-1LAI = test: microbe, parasite or virus in culture; format: cell-based; details: Human immunodeficiency virus 1, MT2, MT-2 cells, 100 TCID50, MTT assay; read-out: EC50 Against HIV-1LAI
Protocol: as §1

HIV-1MDR/G [5] = test: p24 production inhibition in PHA-PBMC; format: cell-based; details: Human immunodeficiency virus 1, PHA-PBMC, p24 Gag production
Protocol: as §1

HIV-1MDRmix DRV ^R 20P = test: p24 production inhibition in PHA-PBMC; format: cell-based; details: Human immunodeficiency virus 1, read-out: EC50 HIV-1MDRmix DRV ^R 20P, PHA-PBMC, p24 Gag production
Protocol: as §1

HIV-1MDR/B = test: p24 production inhibition in PHA-PBMC; format: cell-based; details: Human immunodeficiency virus 1, PHA-PBMC, p24 Gag production
Protocol: as §1

HIV-1MDR/TM = test: p24 production inhibition in PHA-PBMC; format: cell-based; details: Human immunodeficiency virus 1, PHA-PBMC, p24 Gag production
Protocol: as §1

HIV-1MDR/C = test: p24 production inhibition in PHA-PBMC; format: cell-based; details: Human immunodeficiency virus 1, PHA-PBMC, p24 Gag production
Protocol: as §1

[6] = system: HIV-1ERS104pre (wild-type); test: p24 production inhibition in PHA-PBMC; format: cell-based; details: Human immunodeficiency virus 1, PHA-PBMC, p24 Gag production
Protocol: as §1

[7] = Cytotoxicity against MT-2 cells (MTT assay); format: cell-based; details: human
Protocol: as §1

HIV-1APV ^R 5μM [8] = test: p24 production inhibition in MT-4 cells; format: cell-based; details: Human immunodeficiency virus 1, MT4, read-out: EC50 HIV-1APV ^R 5μM, MT-4 cells, p24 Gag production
Protocol: as §1

HIV-1ATV ^R 5μM = test: p24 production inhibition in MT-4 cells; format: cell-based; details: Human immunodeficiency virus 1, MT4, read-out: EC50 HIV-1ATV ^R 5μM, MT-4 cells, p24 Gag production
Protocol: as §1

HIV-1LPV ^R 5μM = test: p24 production inhibition in MT-4 cells; format: cell-based; details: Human immunodeficiency virus 1, MT4, read-out: EC50 HIV-1LPV ^R 5μM, MT-4 cells, p24 Gag production
Protocol: as §1

HIV-1_9510 ^R 36P = test: p24 production inhibition in MT-4 cells; format: cell-based; details: for EC50: Human immunodeficiency virus 1, MT4, read-out: EC50 HIV-19510RP36
Protocol: as §1

HIV-1NL4-3 [9] = test: In vitro selection of resistant HIV-1 variants in MT-4 cells; format: cell-based; details: HIV-1NL4-3 in MT-4 cells, increasing concentrations
Description: MT-4 cells (10^5/ml) were exposed to HIV-1NL4-3 (500 TCID50) and cultured in the presence of compounds at an initial concentration of its EC50 value. Viral replication was monitored by the determination of the amount of p24 produced by MT-4 cells. The supernatants were harvested on day 7 and were used to infect fresh MT-4 cells for the next round of culture in the presence of increasing concentrations of each compound. Proviral DNAs obtained from the lysates of infected cells were subjected to sequencing. This selection procedure was carried out until the drug concentration reached 5 μM as previously described[20]–[22]).

HIV-1NL4-3 [10] = test: p24 production inhibition in MT-4 cells; format: cell-based; details: Human immunodeficiency virus 1, MT4, MT-4 cells, p24 Gag production, Supplemental Table 3
Protocol: as §1

COc1ccc(S(=O)(=O)N(CC(C)C)C[C@@H](O)[C@H](Cc2ccccc2)NC(=O)OC2CO[C@H]3OCC(F)(F)[C@@H]23)cc1 (some centres unmarked) [GRL-04810]
EC50 (HIV-1NL4-3 [1]): 0.0005 ± 0.0005 µM | EC50 (HIV-1MDR/G [2]): 0.004 ± 0.001 µM | fold change in EC50 HIV-1MDR/G (HIV-1MDR/G [2]): 2 | EC50 (HIV-1APV ^R 5μM [3]): 0.43 ± 0.02 µM | fold change in EC50 HIV-1APVR5M (HIV-1APV ^R 5μM [3]): 860 | EC50 [4]: 0.0023 ± 0.0001 µM

CC(C)CN(C[C@@H](O)[C@H](Cc1ccccc1)NC(=O)O[C@H]1CO[C@H]2OCC(F)(F)[C@H]21)S(=O)(=O)c1ccc(N)cc1 [GRL-05010]
EC50 (HIV-1NL4-3 [1]): 0.0037 ± 0.0001 µM | EC50 (HIV-1MDR/G [2]): 0.004 ± 0.001 µM | fold change in EC50 HIV-1MDR/G (HIV-1MDR/G [2]): 1 | EC50 (HIV-1APV ^R 5μM [3]): 0.56 ± 0.03 µM | fold change in EC50 HIV-1APVR5M (HIV-1APV ^R 5μM [3]): 187 | EC50 [4]: 0.0027 ± 0.0003 µM

Cc1cccc(C)c1OCC(=O)N[C@@H](Cc1ccccc1)[C@@H](O)C[C@H](Cc1ccccc1)NC(=O)[C@H](C(C)C)N1CCCNC1=O [LPV, Lopinavir]
EC50 (HIV-2ROD): 0.021 ± 0.007 µM | EC50 (HIV-1LAI): 0.023 ± 0.003 µM | EC50 (HIV-1MDR/G [5]): 0.18 ± 0.02 µM | EC50 (HIV-1MDRmix DRV ^R 20P): > 1 µM | EC50 (HIV-1MDR/B): > 1 µM | EC50 (HIV-1MDR/TM): 0.55 ± 0.09 µM | EC50 (HIV-1MDR/C): 0.39 ± 0.05 µM | EC50 [6]: 0.028 ± 0.002 µM | CC50 [7]: 26.7 ± 4.2 µM | EC50 (HIV-1APV ^R 5μM [8]): 0.4 ± 0.01 µM | EC50 (HIV-1ATV ^R 5μM): > 1 µM | EC50 (HIV-1LPV ^R 5μM): > 1 µM | EC50 (HIV-1_9510 ^R 36P): 0.4 ± 0.02 µM

Cc1nnc(C(=O)NC(C)(C)c2nc(C(=O)NCc3ccc(F)cc3)c(O)c(=O)n2C)o1 [RAL, Raltegravir]
passage at which selection concentration reached 5 µM (HIV-1NL4-3 [9]): ≥ 20

CC(C)(C)NC(=O)[C@@H]1C[C@@H]2CCCC[C@@H]2CN1C[C@@H](O)[C@H](Cc1ccccc1)NC(=O)[C@H](CC(N)=O)NC(=O)c1ccc2ccccc2n1 [SQV, saquinavir]
EC50 (HIV-1NL4-3 [10]): 0.018 ± 0.001 µM | EC50 (HIV-1_9510 ^R 36P): 0.041 ± 0.009 µM | fold change of EC50 HIV-19510RP36 (HIV-1_9510 ^R 36P; compared to EC50 for HIV-1NL4-3, Supplemental Table 3): 2
